This is an account of results in patent US6903089B1, “Lactam-substituted pyrazolopyridine derivatives” (Bayer Aktiengesellschaft, priority 2000, dated 2005).

For this test, the system named is rabbit aorta rings. Description: Vasorelaxant effect in vitro (phenylephrine-contracted rabbit aorta rings). The conditions noted are these: Oryctolagus cuniculus, contraction generated by phenylephrine, concentration reducing height of control contraction by 50%. As to the method: Rabbits are stunned by a blow to the back of the neck and are exsanguinated. The aorta is removed, freed of adherent tissue, divided into rings 1.5 mm wide and put singly under tension in 5 ml organ baths containing carbogen-gassed Krebs-Henseleit solution at 37° C. with the following composition (mM): NaCl: 119; KCl: 4.8; CaCl2×2H2O: 1; MgSO4×7 H2O: 1.4; KH2PO4: 1.2; NaHCO3: 25; glucose: 10. The force of contraction is detected with Statham UC2 cells, amplified and digitized via A/D converters (DAS-1802 HC, Keithley Instruments Munich) and recorded in parallel on chart recorders. A contraction is generated by adding phenylephrine to the bath cumulatively in increasing concentration. After several control cycles, the substance to be investigated is investigated in each further run in increing dosage in each case, and the height of the contraction is compared with the height of the contraction reached in the last preceding run. The concentration necessary to reduce the height of the control value by 50% (IC50) is calculated from this. The standard application volume is 5 μl, and the DMSO content in the bath solution corresponds to 0.1%.
Broadly, the IC50 is the midpoint of a concentration-inhibition curve. Higher therefore signals weaker potency in that assay. `Nc1nc(-c2nn(Cc3ccccc3F)c3ncccc23)ncc1N1CCCC1=O` [Example 2]: the IC50 was 1100 nM.

Consider `Nc1nc(-c2nn(Cc3ccccc3F)c3ncccc23)ncc1N1CCOC1=O` [Example 15], for which the half-maximal inhibitory concentration (IC50) stood at 1200 nM. For `CC1C(=O)N(c2cnc(-c3nn(Cc4ccccc4F)c4ncccc34)nc2N)C(=O)C1(C)C` (centres unmarked) [Example 13] the value was 690 nM; for `Nc1nc(-c2nn(Cc3ccccc3F)c3ncccc23)ncc1N1CCSC1=O` [Example 16], 1230 nM; for `CC12CC1C(=O)N(c1cnc(-c3nn(Cc4ccccc4F)c4ncccc34)nc1N)C2=O` (centres unmarked) [Example 19], 410 nM.

With `Nc1nc(-c2nn(Cc3ccccc3F)c3ncccc23)ncc1N1C(=O)c2ccccc2C1=O` [Example 22, 2-{4-Amino-2-[1-(2-fluorobenzyl)-1H-pyrazolo[3,4-b]pyridin-3-yl]-5-pyrimidinyl}-1H-isoindole-1,3(2H)-dione], the IC50 worked out at 600 nM. The compound `CC1(C)OC(=O)N(c2cnc(-c3nn(Cc4ccccc4F)c4ncccc34)nc2N)C1=O` [Example 14, 3-{4-Amino-2-[1-(2-fluorobenzyl)-1H-pyrazolo[3,4-b]pyridin-3-yl]-5-pyrimidinyl}-5,5-dimethyl-1,3-oxazolidine-2,4-dione] gave an IC50 of 420 nM. This IC50 and that of the compound before are within 1.5-fold of each other. `Nc1nc(-c2nn(Cc3ccccc3F)c3ncccc23)ncc1N1CCCCC1=O` [Example 3]: the IC50 amounted to 1990 nM.

Compound `CC(=O)Nc1nc(-c2nn(Cc3ccccc3F)c3ncccc23)ncc1N1CCOC1=O` [Example 21, N-[2-[1-(2-Fluorebenzyl)-1H-pyrazolo[34-b]pyridin-3-yl]-5-(2-oxo-1,3-oxazolidin-3-yl)-4-pyrimidinyl]acetamide] showed an IC50 of 250 nM. Consider `CC1(C)CN(c2cnc(-c3nn(Cc4ccccc4F)c4ncccc34)nc2N)C(=O)C1(C)C` [Example 9], for which the midpoint of inhibition, the IC50, lay at 700 nM.

Turning to `Nc1nc(-c2nn(Cc3ccccc3F)c3ncccc23)ncc1N1CCCCCC1=O` [Example 5], inhibition was half-maximal at 1050 nM (IC50).
